Patent publication US20240279201A1, “DUAL WNT SIGNALING PATHWAY INHIBITORS AND AMPK ACTIVATORS FOR TREATMENTS OF DISEASE” (priority 2021, published 2024)

Assays:
[1] = tested on: Wnt signaling in SW480 cells; assay: Luciferase gene reporter (TOPflash) assay in SW480 cells; format: cell-based, human
[2] = Cytotoxicity (CC50) during the luciferase gene reporter assay; format: cell-based; settings: human, HEK293 cells; short treatment duration of the luciferase gene reporter assay
[3] = tested on: Wnt/β-Catenin signaling pathway; assay: Wnt signaling luciferase (TOPflash) reporter gene assay; format: cell-based; settings: for IC50: luciferase reporter gene assay, mean of three independent experiments, read-out: IC50 (nM) to inhibit the Wnt signaling activity
Source text: A dual-luciferase gene reporter assay was used to test inhibitory activities of new compounds on Wnt signaling. […] Therefore, the effects of new compounds on AMPK was examined. […]

AMPK = AMPK activation in SW620 cells (immunoblotting); format: cell-based
Experimental: HEK293 cells were stained with anti-axin-1 or DAPI and studied under fluorescence microscopy. FIG. 26B is an image illustrating enhanced AMPK phosphorylation by Axin overexpression (empty pcDNA3 vs. pcDNA3-Axin-1) in HEK293 cells. […] See FIG. 23A-FIG. 23C for Axin knockdown. […] Cells were treated for 24 h.
Treatment of compound YW2049 indicated no effects on total protein levels of AMPK and ACC in SW620 cells.
The effects of FX analogs in Axin stabilization and AMPK activation were further studied by genetic manipulation of Axin. Axin overexpression led to enhanced AMPK activation (FIG. 26A and FIG. 26B). In contrast, it has been reported that knockdown of Axin in cells and in mouse liver impairs AMPK activation. […] This timeline is consistent with the reports that Axin can form a complex with AMPK.

CRC cells = settings: as reported in literature; cited from earlier work

| IC50 [3] [nM] | Structure (SMILES) | extent of inhibition of Wnt signaling activity in reporter assays [1] | CC50 [2] [nM] | inhibition at 1 µM [3] [%] | p-AMPK levels (AMPK) | IC50 in killing CRC cells (CRC cells) |
| --- | --- | --- | --- | --- | --- | --- |
| – | Oc1nc(-c2ccc(C(F)(F)F)cc2)nc2c1CSCC2 [XAV939, reference compound] | could not fully inhibit Wnt signaling activity | > 92000 | 74 | – | – |
| – | Cc1ccccc1-n1nnc(C(=O)Nc2ccc3ccccc3n2)c1C [YW1128] | – | – | – | increased | – |
| – | O=C1[O][Pt]2([NH][C@@H]3CCCC[C@H]3[NH]2)[O]C1=O [oxaliplatin] | – | – | – | – | low μM |
| – | O=c1[nH]cc(F)c(=O)[nH]1 [5-FU] | – | – | – | – | low μM |
| > 1000 | O=C(Nc1ccc2ccccc2n1)c1nnn(-c2ccccc2)n1 [YA6171, 2-Phenyl-N-(quinolin-2-yl)-2H-tetrazole-5-carboxamide] | – | > 92000 | – | – | – |
| > 1000 | Cc1ccccc1-n1nnc(C(=O)Nc2cc3ccccc3cn2)c1C [YA6164, N-(Isoquinolin-3-yl)-5-methyl-1-(o-tolyl)-1H-1,2,3-triazole-4-carboxamide] | – | > 92000 | – | – | – |
| > 1000 | Cc1ccccc1-n1nnc(C(=O)Nc2ccc3cccnc3n2)c1C [YA6047, 5-Methyl-N-(1,8-naphthyridin-2-yl)-1-(o-tolyl)-1H-1,2,3-triazole-4-carboxamide] | – | > 92000 | – | – | – |
| > 1000 | Cc1ccccc1-n1nnc(C(=O)Nc2nc3ccccc3o2)c1C [YA4067] | – | > 92000 | 14 | – | – |
| > 1000 | Cc1ccccc1-n1nnc(C(=O)Nc2nc3c(Cl)cccc3s2)c1C [YA4095, N-(4-Chlorobenzo[d]thiazol-2-yl)-5-methyl-1-(o-tolyl)-1H-1,2,3-triazole-4-carboxamide] | – | > 92000 | 8 | – | – |
| 15 | Cc1ccc2nc(NC(=O)c3nnn(-c4ccccc4C)c3C)sc2c1 [YA4069, 5-Methyl-N-(6-methylbenzo[d]thiazol-2-yl)-1-(o-tolyl)-1H-1,2,3-triazole-4-carboxamide] | – | > 92000 | – | – | – |
| > 1000 | COc1ccc2nc(NC(=O)c3nnn(-c4ccccc4C)c3C)sc2c1 [YA4091, N-(6-Methoxybenzo[d]thiazol-2-yl)-5-methyl-1-(o-tolyl)-1H-1,2,3-triazole-4-carboxamide] | – | > 92000 | 12 | – | – |
| 4.7 | Cc1c(C(=O)Nc2nc3ccccc3s2)nnn1-c1cc(F)ccc1F [YA1084, N-(Benzo[d]thiazol-2-yl)-1-(2,5-difluorophenyl)-5-methyl-1H-1,2,3-triazole-4-carboxamide] | – | > 92000 | 88 | – | – |
| 7.6 | CC(C)c1c(C(=O)Nc2nc3ccc(F)cc3s2)nnn1-c1ccccc1F [YA6172, N-(6-Fluorobenzo[d]thiazol-2-yl)-1-(2-fluorophenyl)-5-isopropyl-1H-1,2,3-triazole-4-carboxamide] | – | > 92000 | 98 | – | – |
| > 1000 | Cc1c(C(=O)Nc2nc3ccccc3s2)nnn1-c1ccc(F)cc1F [YA1046, N-(Benzo[d]thiazol-2-yl)-1-(2,4-difluorophenyl)-5-methyl-1H-1,2,3-triazole-4-carboxamide] | – | > 92000 | 40 | – | – |
| 3.3 | Cc1cccc(F)c1-n1nnc(C(=O)Nc2nc3ccccc3s2)c1C [YA1042, N-(Benzo[d]thiazol-2-yl)-1-(2-fluoro-6-methylphenyl)-5-methyl-1H-1,2,3-triazole-4-carboxamide] | – | > 92000 | 92 | – | – |
| > 1000 | Cc1ccccc1-n1ncc(C(=O)Nc2ncc(-c3ccccc3)s2)c1C [YA7019, 5-Methyl-N-(5-phenylthiazol-2-yl)-1-(o-tolyl)-1H-pyrazole-4-carboxamide] | – | > 92000 | – | – | – |
| 1.3 | Cc1c(C(=O)Nc2nc3ccccc3s2)cnn1-c1ccccc1F [YA4007, N-(Benzo[d]thiazol-2-yl)-1-(2-fluorophenyl)-5-methyl-1H-pyrazole-4-carboxamide] | – | > 92000 | – | – | – |
| 4.1 | Cc1ccccc1-n1nnc(C(=O)Nc2ccc3ccccc3n2)c1C [FX1128, reference compound] | – | > 92000 | – | – | – |

| IC50 [3] [nM] | Structure (SMILES) | extent of inhibition of Wnt signaling activity in reporter assays [1] | CC50 [2] [nM] | inhibition at 1 µM [3] [%] | p-AMPK levels (AMPK) | IC50 in killing CRC cells (CRC cells) |
| --- | --- | --- | --- | --- | --- | --- |
| 3.6 | CCc1c(C(=O)Nc2nc3ccccc3s2)cnn1-c1ccccc1 [YA6143, N-(Benzo[d]thiazol-2-yl)-5-ethyl-1-phenyl-1H-pyrazole-4-carboxamide] | – | > 92000 | – | – | – |
| 202 | Cc1ccccc1-n1nnc(C(=O)Nc2nc3cc(Cl)ccc3s2)c1C [YA4013, N-(5-Chlorobenzo[d]thiazol-2-yl)-5-methyl-1-(o-tolyl)-1H-1,2,3-triazole-4-carboxamide] | – | > 92000 | 61 | – | – |
| > 1000 | Cc1c(C(=O)Nc2nc3ccccc3s2)nnn1-c1cccc(F)c1 [YA1072, N-(Benzo[d]thiazol-2-yl)-1-(3-fluorophenyl)-5-methyl-1H-1,2,3-triazole-4-carboxamide] | – | > 92000 | 42 | – | – |
| 1.8 | Cc1c(C(=O)Nc2nc3ccccc3s2)nnn1-c1ccccc1Br [YA4003, N-(Benzo[d]thiazol-2-yl)-1-(2-bromophenyl)-5-methyl-1H-1,2,3-triazole-4-carboxamide] | – | > 92000 | 100 | – | – |
| > 1000 | Cc1ccc(-c2csc(NC(=O)c3nnn(-c4ccccc4C)c3C)n2)cc1 [YA4141] | – | > 92000 | – | – | – |
| > 1000 | Cc1ccccc1-n1nnc(C(=O)Nc2ncc3ccccc3n2)c1C [YA6061, 5-Methyl-N-(quinazolin-2-yl)-1-(o-tolyl)-1H-1,2,3-triazole-4-carboxamide] | – | > 92000 | – | – | – |
| > 1000 | Cc1ccccc1-n1nnc(C(=O)Nc2ccc3ccccc3n2)n1 [YA70031, N-(Quinolin-2-yl)-2-(o-tolyl)-2H-tetrazole-5-carboxamide] | – | > 92000 | – | – | – |
| > 1000 | Cc1ccc(-c2csc(NC(=O)c3nnn(-c4ccccc4C)c3C)n2)c(C)c1 [YA4169] | – | > 92000 | – | – | – |
| 6 | Cc1c(C(=O)Nc2cnc3ccccc3n2)nnn1-c1ccccc1C#N [YA6137, 1-(2-Cyanophenyl)-5-methyl-N-(quinoxalin-2-yl)-1H-1,2,3-triazole-4-carboxamide] | – | > 92000 | – | – | – |
| 8.8 | CC(C)c1c(C(=O)Nc2nc3ccccc3s2)nnn1-c1ccccc1F [YA4005, N-(Benzo[d]thiazol-2-yl)-1-(2-fluorophenyl)-5-isopropyl-1H-1,2,3-triazole-4-carboxamide] | – | > 92000 | 99 | – | – |
| 1.4 | Cc1ccccc1-n1ncc(C(=O)Nc2nc3ccccc3s2)c1C [YA6179, N-(Benzo[d]thiazol-2-yl)-5-methyl-1-(o-tolyl)-1H-pyrazole-4-carboxamide] | – | > 92000 | – | – | – |
| > 1000 | Cc1ccccc1-n1nnc(C(=O)Nc2ccc3cccc(CN4CCN(C(=O)OC(C)(C)C)CC4)c3n2)c1C [YA6160, tert-Butyl 4-((2-(5-methyl-1-(o-tolyl)-1H-1,2,3-triazole-4-carboxamido)quinolin-8-yl)methyl)piperazine-1-carboxylate] | – | > 92000 | – | – | – |
| > 1000 | Cc1ccccc1-n1nnc(C(=O)Nc2ncc(-c3ccccc3)s2)c1C [YA4085, 5-Methyl-N-(5-phenylthiazol-2-yl)-1-(o-tolyl)-1H-1,2,3-triazole-4-carboxamide] | – | > 92000 | 37 | – | – |
| > 1000 | Cc1ccccc1-n1nnc(C(=O)Nc2ccc3ccncc3c2)c1C [YA61691, N-(Isoquinolin-7-yl)-5-methyl-1-(o-tolyl)-1H-1,2,3-triazole-4-carboxamide] | – | > 92000 | – | – | – |
| 17 | Cc1c(C(=O)Nc2nc3ccccc3s2)nnn1-c1ccccc1C(F)(F)F [YA6089, N-(Benzo[d]thiazol-2-yl)-5-methyl-1-(2-(trifluoromethyl)phenyl)-1H-1,2,3-triazole-4-carboxamide] | – | > 92000 | 89 | – | – |
| > 1000 | Cc1ccccc1-n1nnc(C(=O)Nc2cc(CN3CCN(C(=O)OC(C)(C)C)CC3)c3ccccc3n2)c1C [YA6159, tert-Butyl 4-((2-(5-methyl-1-(o-tolyl)-1H-1,2,3-triazole-4-carboxamido)quinolin-4-yl)methyl)piperazine-1-carboxylate] | – | > 92000 | – | – | – |
| > 1000 | Cc1ccccc1-n1nnc(C(=O)Nc2nc(-c3ccccc3Cl)cs2)c1C [YA4145] | – | > 92000 | – | – | – |
| > 1000 | Cc1ccccc1-n1ncc(C(=O)Nc2nc(-c3ccccc3)cs2)c1C [YA7015, 5-Methyl-N-(4-phenylthiazol-2-yl)-1-(o-tolyl)-1H-pyrazole-4-carboxamide] | – | > 92000 | – | – | – |
